The target in this assay is HIV-1 protease (Human immunodeficiency virus type 1 group M subtype B, UniProt P04585). Put plainly: biochemical. The settings on record: for inhibition at 0.123 µM: read-out: HIV-1 Protease % Inhib, dose 0.123 uM. The method in brief:
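Percent inhibition derived from fluorescent cleavage product separated by filtration after streptavidin-bead capture of intact biotin/FITC substrate. Reaction: enzyme (10 μl, 0.1 μM stock) with substrate (20 μl, 0.2 μM stock) and compound, 1 h at room temperature in dark, pH 5.5 acetate buffer with 1.0 M NaCl and 0.05% NP-40.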

[1] abbreviates: dose 1.100 uM, read-out: HIV-1 Protease % Inhib.
[2] abbreviates: dose 3.300 uM, read-out: HIV-1 Protease % Inhib.
The mark [3] stands for this setting: dose 10.000 uM, read-out: HIV-1 Protease % Inhib.
Setting [4] is: dose 30.000 uM, read-out: HIV-1 Protease % Inhib.
Where [5] appears, read: dose 0.370 uM, read-out: HIV-1 Protease % Inhib.
Where [6] appears, read: read-out: HIV-1 Protease % Inhib, dose 0.370 uM.
[7] abbreviates: read-out: HIV-1 Protease % Inhib, dose 1.100 uM.
[8] abbreviates: read-out: HIV-1 Protease % Inhib, dose 3.300 uM.
The mark [9] stands for this setting: read-out: HIV-1 Protease % Inhib, dose 10.000 uM.
[10] abbreviates: read-out: HIV-1 Protease % Inhib, dose 30.000 uM.

Like-named read-outs stand apart in the source and are kept apart here.

These results are taken from patent US5686486A, “4-hydroxy-benzopyran-2-ones and 4-hydroxy-cycloalkyl[b]pyran-2-ones useful to treat retroviral infections” (priority 1995, dated 1997).

As to `CCCCOc1ccc(S(=O)(=O)Nc2cccc(C(c3c(O)c4c(oc3=O)CCCCCC4)C3CC3)c2)cc1` (stereo not drawn) [Example 282, 4-Butoxy-N-[3-[cyclopropyl(5,6,7,8,9,10-hexahydro-4-hydroxy-2-oxo-2H-cycloocta[b]pyran-3-yl)methyl]phenyl]-benzenesulfonamide], the inhibition at 1.1 µM under setting [1] stood at 10.6%. The inhibition at 3.3 µM under setting [2] was found to be 43.2%. For the same molecule, under setting [3], the inhibition at 10 µM was 65.3%. Under setting [4], the inhibition at 30 µM was 96.3%.
`CN(C)c1cccc2c(S(=O)(=O)Nc3cccc(C(c4c(O)c5c(oc4=O)CCCCCC5)C4CC4)c3)cccc12` (stereo not drawn) [Example 283, N-[3-[Cyclopropyl(5,6,7,8,9,10-hexahydro4-hydroxy-2-oxo-2H-cycloocta[b]pyran-3-yl)methyl]phenyl]-5-(dimethylamino)-1-naphthalenesulfonamide]: the inhibition at 0.37 µM under setting [5] was 10.6%. The inhibition at 1.1 µM under setting [1] was determined as 42.3%. The inhibition at 3.3 µM under setting [2] is 64.2%. In addition, the inhibition at 10 µM under setting [3] came out at 85.1%. The inhibition at 30 µM under setting [4] is 80.2%.
As to `O=c1oc2c(c(O)c1C(c1cccc(NS(=O)(=O)c3cccc(Cl)c3Cl)c1)C1CC1)CCCCCC2` (stereo not drawn) [Example 285, 2,3-Dichloro-N-[3-[cyclopropyl(5,6,7,8,9,10-hexahydro4-hydroxy-2-oxo-2H-cycloocta[b]pyran-3-yl)methyl]phenyl]-benzenesulfonamide], the inhibition at 0.123 µM is 37.6%. The inhibition at 0.37 µM under setting [6] was 73.8%. Also, the inhibition at 1.1 µM under setting [7] worked out at 84.6%. Under setting [8], the inhibition at 3.3 µM came to 95%. Besides, the inhibition at 10 µM under setting [9] is 97.7%. Besides, the inhibition at 30 µM under setting [10] was found to be 91.8%.
`Cc1cccc(Cl)c1S(=O)(=O)Nc1cccc(C(c2c(O)c3c(oc2=O)CCCCCC3)C2CC2)c1` (stereo not drawn) [Example 287, 2-Chloro-N-[3-[cyclopropyl(5,6,7,8,9,10-hexahydro4-hydroxy-2-oxo-2H-cycloocta[b]pyran-3-yl)methyl]phenyl]-6-methyl-benzenesulfonamide]: the inhibition at 0.37 µM under setting [5] turned out to be 14.1%. In addition, the “HIV-1 Protease % Inhib” value runs as follows: (dose 1.100 uM) 36.69%; (dose 3.300 uM) 64.32%; (dose 10.000 uM) 92.75%; (dose 30.000 uM) 106.21%. The inhibition at 1.1 µM under setting [1] was found to be 44.1%. Further, the inhibition at 3.3 µM under setting [2] was 68.2%. The inhibition at 10 µM under setting [3] was 85.8%. Besides, the inhibition at 30 µM under setting [4] amounted to 86.7%.
Turning to `O=c1oc2c(c(O)c1C(c1cccc(NS(=O)(=O)c3cc(Cl)cc(Cl)c3)c1)C1CC1)CCCCCC2` (stereo not drawn) [Example 288, 3,5-Dichloro-N-[3-[cyclopropyl(5,6,7,8,9,10-hexahydro-4-hydroxy-2-oxo-2H-cycloocta[b]pyran-3-yl)methyl]phenyl]-benzenesulfonamide], the inhibition at 0.123 µM was found to be 46.9%. Besides, the inhibition at 0.37 µM under setting [6] is 79.1%. Under setting [7], the inhibition at 1.1 µM came out at 90.5%. Besides, the inhibition at 3.3 µM under setting [8] was 92.9%. In addition, the inhibition at 10 µM under setting [9] stood at 105%. Further, under setting [10], the inhibition at 30 µM turned out to be 101%.
For the molecule `O=c1oc2c(c(O)c1C(c1cccc(NS(=O)(=O)c3cccc(Cl)c3)c1)C1CC1)CCCCCC2` (stereo not drawn) [Example 289], the inhibition at 0.123 µM was 63.7%. Under setting [6], the inhibition at 0.37 µM stood at 80%. The inhibition at 1.1 µM under setting [7] worked out at 91.1%. In addition, the inhibition at 3.3 µM under setting [8] came to 97.3%. The inhibition at 10 µM under setting [9] is 95.3%. Besides, the inhibition at 30 µM under setting [10] came to 101%.
`O=c1oc2c(c(O)c1C(c1cccc(NS(=O)(=O)c3cccc(Br)c3)c1)C1CC1)CCCCCC2` (stereo not drawn) [Example 291, 3-Bromo-N-[3-[cyclopropyl(5,6,7,8,9,10-hexahydro-4-hydroxy-2-oxo-2H-cycloocta[b]pyran-3-yl)methyl]phenyl]-benzenesulfonamide]: the inhibition at 0.123 µM amounted to 80.4%. The inhibition at 0.37 µM under setting [6] turned out to be 108%. Besides, under setting [7], the inhibition at 1.1 µM is 109%. For the same molecule, under setting [8], the inhibition at 3.3 µM amounted to 122%. For the same molecule, the inhibition at 10 µM under setting [9] is 118%. Further, the inhibition at 30 µM under setting [10] worked out at 117%.
`O=C(O)c1cccc(S(=O)(=O)Nc2cccc(C(c3c(O)c4c(oc3=O)CCCCCC4)C3CC3)c2)c1` (stereo not drawn) [Example 292, 3-[[[3-[Cyclopropyl(5,6,7,8,9,10-hexahydro4-hydroxy-2-oxo-2H-cycloocta[b]pyran-3-yl)methyl]phenyl]amino]sulfonyl]-benzoic acid]: the inhibition at 0.123 µM was determined as 74.4%. Moreover, the inhibition at 0.37 µM under setting [6] came to 104%. For the same molecule, the inhibition at 1.1 µM under setting [7] worked out at 111%. Also, the inhibition at 3.3 µM under setting [8] amounted to 125%. The inhibition at 10 µM under setting [9] was 115%. Also, under setting [10], the inhibition at 30 µM was determined as 111%.
Take `O=c1oc2c(c(O)c1C(c1cccc(NS(=O)(=O)c3ccccc3Cl)c1)C1CC1)CCCCCC2` (stereo not drawn) [Example 293, 2-Chloro-N-[3-[cyclopropyl(5,6,7,8,9,10-hexahydro-4-hydroxy-2-oxo-2H-cycloocta[b]pyran-3-yl)methyl]phenyl]-benzenesulfonamide]: the inhibition at 0.123 µM turned out to be 54.9%. Further, under setting [6], the inhibition at 0.37 µM came to 82.4%. Moreover, the inhibition at 1.1 µM under setting [7] is 96.8%. In addition, under setting [8], the inhibition at 3.3 µM was determined as 107%. Further, the inhibition at 10 µM under setting [9] stood at 105%. Under setting [10], the inhibition at 30 µM worked out at 109%.
For `O=c1oc2c(c(O)c1C(c1cccc(NS(=O)(=O)c3c(Cl)cccc3Cl)c1)C1CC1)CCCCCC2` (stereo not drawn) [Example 295, 2,6-Dichloro-N-[3-[cyclopropyl(5,6,7,8,9,10-hexahydro-4-hydroxy-2'-oxo-2H-cycloocta[b]pyran-3-yl)methyl]phenyl]-benzenesulfonamide], the inhibition at 1.1 µM under setting [1] is 25.9%. Also, the inhibition at 3.3 µM under setting [2] was determined as 57%. In addition, the inhibition at 10 µM under setting [3] stood at 87.5%. Moreover, the inhibition at 30 µM under setting [4] was 100%.
Take `Cn1cnc(S(=O)(=O)Nc2cccc([C@@H](c3c(O)c4c(oc3=O)CCCCCC4)C3CC3)c2)c1` [Example 297, N-[3-[Cyclopropyl(5,6,7,8,9,10-hexahydro-4-hydroxy-2-oxo-2H-cycloocta-3-yl)methyl]phenyl]-1-methyl-(S)-1H-imidazole-4-sulfonamide]: the inhibition at 0.123 µM turned out to be 72%. In addition, the inhibition at 0.37 µM under setting [6] turned out to be 86%. Moreover, the inhibition at 1.1 µM under setting [7] came out at 101%. Besides, the inhibition at 3.3 µM under setting [8] was 99.8%. Also, the inhibition at 10 µM under setting [9] amounted to 102%. Moreover, under setting [10], the inhibition at 30 µM was determined as 99.5%.
For the molecule `O=c1oc2c(c(O)c1C(c1cccc(NS(=O)(=O)c3ccc(I)cc3)c1)C1CC1)CCCCCC2` (stereo not drawn) [Example 300, N-[3-[Cyclopropyl(5,6,7,8,9,10-hexahydro-4-hydroxy-2-oxo-2H-cycloocta[b]pyran-3-yl)methyl]phenyl]-4-iodo-benzenesulfonamide], the inhibition at 0.123 µM was 68.8%. In addition, the inhibition at 0.37 µM under setting [6] is 92.2%. The inhibition at 1.1 µM under setting [7] was found to be 101%. Besides, the inhibition at 3.3 µM under setting [8] worked out at 102%. Further, the inhibition at 10 µM under setting [9] was found to be 108%. Besides, the inhibition at 30 µM under setting [10] stood at 108%.
In the case of `O=c1oc2c(c(O)c1C(c1cccc(NS(=O)(=O)c3ccc(Cl)cc3Cl)c1)C1CC1)CCCCCC2` (stereo not drawn) [Example 305, 2,4-Dichloro-N-[3-[cyclopropyl(5,6,7,8,9,10-hexahydro-4-hydroxy-2'-oxo-2H-cycloocta[b]pyran-3-yl)methyl]phenyl]-benzenesulfonamide], the inhibition at 0.123 µM was 60.4%. In addition, under setting [6], the inhibition at 0.37 µM was found to be 86.2%. Also, under setting [7], the inhibition at 1.1 µM was 92.4%. Moreover, the inhibition at 3.3 µM under setting [8] was determined as 95.2%. Under setting [9], the inhibition at 10 µM is 99.8%. Moreover, the inhibition at 30 µM under setting [10] stood at 107%.
Regarding `O=c1oc2c(c(O)c1C(c1cccc(NS(=O)(=O)c3c(Cl)cc(Cl)cc3Cl)c1)C1CC1)CCCCCC2` (stereo not drawn) [Example 306, 2,4,6-Trichloro-N-[3-[cyclopropyl(5,6,7,8,9,10-hexahydro-4-hydroxy-2-oxo-2H-cycloocta[b]pyran-3-yl)methyl]phenyl]-benzenesulfonamide], the inhibition at 1.1 µM under setting [1] came to 24.4%. Further, the inhibition at 3.3 µM under setting [2] stood at 53.2%. In addition, under setting [3], the inhibition at 10 µM is 74.5%. Besides, under setting [4], the inhibition at 30 µM was determined as 86.2%.
Consider `CS(=O)(=O)Nc1cccc(C(c2c(O)c3c(oc2=O)CCCCCC3)C2CC2)c1` (stereo not drawn) [Example 317, N-[3-[Cyclopropyl(5,6,7,8,9,10-hexahydro-4-hydroxy-2-oxo-2H-cycloocta[b]pyran-3-yl)methyl]phenyl]-methanesulfonamide], for which the inhibition at 0.123 µM stood at 27.8%. The inhibition at 0.37 µM under setting [6] was determined as 46.7%. Besides, under setting [7], the inhibition at 1.1 µM was determined as 81.7%. The inhibition at 3.3 µM under setting [8] stood at 101%. For the same molecule, under setting [9], the inhibition at 10 µM came to 102%. The inhibition at 30 µM under setting [10] turned out to be 113%.
For the molecule `CC(=O)Nc1nc(C)c(S(=O)(=O)Nc2cccc(C(c3c(O)c4c(oc3=O)CCCCCC4)C3CC3)c2)s1` (stereo not drawn) [Example 322, N-[5-[[[3-[Cyclopropyl(5,6,7,8,9,10-hexahydro-4-hydroxy-2-oxo-2H-cycloocta[b]pyran-3-yl)methyl]phenyl]amino]sulfonyl]-4-methyl-2-thiazolyl]-acetamide], the inhibition at 1.1 µM under setting [1] came to 22.3%. In addition, the inhibition at 3.3 µM under setting [2] turned out to be 61.1%. In addition, the inhibition at 10 µM under setting [3] stood at 91.8%. The inhibition at 30 µM under setting [4] turned out to be 106%.
On to `O=c1oc2c(c(O)c1C(c1cccc(NS(=O)(=O)c3cccs3)c1)C1CC1)CCCCCC2` (stereo not drawn) [Example 323, N-[3-[Cyclopropyl(5,6,7,8,9,10-hexahydro-4-hydroxy-2-oxo-2H-cycloocta[b]pyran-3-yl)methyl]phenyl]-2-thiophenesulfonamide], for which the inhibition at 0.123 µM was found to be 62.8%. Under setting [6], the inhibition at 0.37 µM came to 91.8%. The inhibition at 1.1 µM under setting [7] stood at 100%. Further, the inhibition at 3.3 µM under setting [8] stood at 104%. In addition, the inhibition at 10 µM under setting [9] came to 118%. Also, under setting [10], the inhibition at 30 µM stood at 112%.
